{
  "source": "paper PMC6553708",
  "about": "(PLoS ONE, 2019)",
  "key": {"Mu Opioid Receptor (MOR) [1]": {"biological_target": "T1, Mu Opioid Receptor (MOR) (Homo sapiens, UniProt P35372)", "T1 sequence (P35372 whole entry)": "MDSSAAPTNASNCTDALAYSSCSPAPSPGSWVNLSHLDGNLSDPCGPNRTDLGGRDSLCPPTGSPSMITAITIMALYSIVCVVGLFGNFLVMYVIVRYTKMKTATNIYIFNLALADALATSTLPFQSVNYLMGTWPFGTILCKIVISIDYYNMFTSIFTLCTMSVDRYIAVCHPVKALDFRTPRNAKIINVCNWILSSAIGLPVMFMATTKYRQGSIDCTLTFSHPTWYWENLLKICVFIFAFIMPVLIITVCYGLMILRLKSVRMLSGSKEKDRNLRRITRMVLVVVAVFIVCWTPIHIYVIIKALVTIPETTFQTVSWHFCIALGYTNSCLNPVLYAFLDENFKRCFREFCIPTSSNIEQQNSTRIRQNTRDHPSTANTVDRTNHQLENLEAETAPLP", "assay": "biochemical", "conditions": "for Emax: read-out: MOR EMAX (35S-GTPγS)"}, "[2]": {"biological_target": "T2, Serotonin Transporter (SERT) (Homo sapiens, UniProt P31645)", "T2 construct": "HA (N); host or cells: HEK293 (ATCC CRL-1573), electroporated, G418-selected population", "T2 sequence (P31645 whole entry)": "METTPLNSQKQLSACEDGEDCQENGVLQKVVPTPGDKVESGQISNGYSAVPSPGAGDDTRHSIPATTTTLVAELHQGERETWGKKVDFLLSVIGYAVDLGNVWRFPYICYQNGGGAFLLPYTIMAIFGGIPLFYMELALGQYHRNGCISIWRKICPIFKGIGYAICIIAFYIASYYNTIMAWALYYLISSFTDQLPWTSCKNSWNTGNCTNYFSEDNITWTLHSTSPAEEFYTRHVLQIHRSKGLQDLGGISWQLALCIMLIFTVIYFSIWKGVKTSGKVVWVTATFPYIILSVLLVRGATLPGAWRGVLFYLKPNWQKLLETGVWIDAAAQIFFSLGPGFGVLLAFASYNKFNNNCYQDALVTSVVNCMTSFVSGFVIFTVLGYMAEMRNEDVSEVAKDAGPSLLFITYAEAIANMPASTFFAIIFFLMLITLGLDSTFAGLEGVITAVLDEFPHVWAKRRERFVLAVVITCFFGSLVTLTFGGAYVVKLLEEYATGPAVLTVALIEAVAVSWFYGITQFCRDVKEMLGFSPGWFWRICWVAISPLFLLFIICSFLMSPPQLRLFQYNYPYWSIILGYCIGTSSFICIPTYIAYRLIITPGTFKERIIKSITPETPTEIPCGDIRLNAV", "assay": "cell-based"}, "Sigma-1 Receptor (σ1R)": {"biological_target": "T3, Sigma-1 Receptor (σ1R) (Homo sapiens, UniProt Q99720)", "T3 construct": "HA (N); host or cells: HEK293 (ATCC CRL-1573), electroporated, G418-selected population; membranes used", "T3 sequence (Q99720 whole entry)": "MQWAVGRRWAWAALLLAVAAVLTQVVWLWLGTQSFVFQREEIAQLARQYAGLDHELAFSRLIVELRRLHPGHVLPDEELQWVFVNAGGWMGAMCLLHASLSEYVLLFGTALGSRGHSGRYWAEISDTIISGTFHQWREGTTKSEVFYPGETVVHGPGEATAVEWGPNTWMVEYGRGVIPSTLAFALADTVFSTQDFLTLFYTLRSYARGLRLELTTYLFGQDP", "assay": "biochemical", "format": "binding"}, "[3]": {"biological_target": "T4, Cannabinoid Receptor Type 1 (CB1) (Homo sapiens, UniProt P21554)", "T4 construct": "membranes used", "T4 sequence (P21554 whole entry)": "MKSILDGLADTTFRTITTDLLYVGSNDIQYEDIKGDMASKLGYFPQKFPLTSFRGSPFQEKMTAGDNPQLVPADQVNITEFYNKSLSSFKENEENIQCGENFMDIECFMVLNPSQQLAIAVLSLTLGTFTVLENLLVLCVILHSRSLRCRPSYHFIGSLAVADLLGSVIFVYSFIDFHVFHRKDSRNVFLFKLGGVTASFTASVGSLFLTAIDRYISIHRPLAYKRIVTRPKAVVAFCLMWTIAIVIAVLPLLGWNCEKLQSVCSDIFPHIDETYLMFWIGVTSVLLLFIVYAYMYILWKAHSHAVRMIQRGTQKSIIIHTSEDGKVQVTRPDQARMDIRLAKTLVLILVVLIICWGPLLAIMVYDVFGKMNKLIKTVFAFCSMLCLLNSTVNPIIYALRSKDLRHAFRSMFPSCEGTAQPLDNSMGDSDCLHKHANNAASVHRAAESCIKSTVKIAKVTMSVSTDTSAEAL", "assay": "biochemical"}, "[4]": {"conditions": "cited from earlier work"}, "[5]": {"biological_target": "T5, Delta Opioid Receptor (DOR) (Homo sapiens, UniProt P41143)", "T5 construct": "3X-hemagglutinin (HA) (N); expressed in transfected cells; membranes used", "T5 sequence (P41143 whole entry)": "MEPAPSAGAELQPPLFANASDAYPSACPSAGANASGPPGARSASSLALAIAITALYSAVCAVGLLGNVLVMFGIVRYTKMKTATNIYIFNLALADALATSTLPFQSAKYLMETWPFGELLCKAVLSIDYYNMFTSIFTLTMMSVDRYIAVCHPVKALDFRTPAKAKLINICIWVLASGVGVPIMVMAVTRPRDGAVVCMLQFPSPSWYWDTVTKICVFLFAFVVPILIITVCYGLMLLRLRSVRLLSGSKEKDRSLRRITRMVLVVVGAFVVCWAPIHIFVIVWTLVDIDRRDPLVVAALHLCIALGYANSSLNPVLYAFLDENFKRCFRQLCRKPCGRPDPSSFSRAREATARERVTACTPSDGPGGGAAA", "format": "biochemical"}, "[6]": {"biological_target": "T6, Kappa Opioid Receptor (KOR) (Homo sapiens, UniProt P41145)", "T6 construct": "membranes used", "T6 sequence (P41145 whole entry)": "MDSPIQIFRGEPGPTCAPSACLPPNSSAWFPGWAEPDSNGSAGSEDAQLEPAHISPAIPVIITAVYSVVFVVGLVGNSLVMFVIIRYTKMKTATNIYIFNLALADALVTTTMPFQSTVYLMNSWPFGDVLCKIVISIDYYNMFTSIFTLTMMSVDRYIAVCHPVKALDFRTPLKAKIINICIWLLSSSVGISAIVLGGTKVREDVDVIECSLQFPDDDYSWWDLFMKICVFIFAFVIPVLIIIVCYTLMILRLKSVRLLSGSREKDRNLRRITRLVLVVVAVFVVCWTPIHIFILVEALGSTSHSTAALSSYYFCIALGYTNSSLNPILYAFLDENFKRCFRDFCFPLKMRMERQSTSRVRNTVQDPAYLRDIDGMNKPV", "assay": "biochemical", "format": "binding"}, "[7]": {"biological_target": "T7, Norepinephrine Transporter (NET) (Homo sapiens, UniProt P23975)", "T7 construct": "HA (N); host or cells: HEK293 (ATCC CRL-1573), electroporated, G418-selected population", "T7 sequence (P23975 whole entry)": "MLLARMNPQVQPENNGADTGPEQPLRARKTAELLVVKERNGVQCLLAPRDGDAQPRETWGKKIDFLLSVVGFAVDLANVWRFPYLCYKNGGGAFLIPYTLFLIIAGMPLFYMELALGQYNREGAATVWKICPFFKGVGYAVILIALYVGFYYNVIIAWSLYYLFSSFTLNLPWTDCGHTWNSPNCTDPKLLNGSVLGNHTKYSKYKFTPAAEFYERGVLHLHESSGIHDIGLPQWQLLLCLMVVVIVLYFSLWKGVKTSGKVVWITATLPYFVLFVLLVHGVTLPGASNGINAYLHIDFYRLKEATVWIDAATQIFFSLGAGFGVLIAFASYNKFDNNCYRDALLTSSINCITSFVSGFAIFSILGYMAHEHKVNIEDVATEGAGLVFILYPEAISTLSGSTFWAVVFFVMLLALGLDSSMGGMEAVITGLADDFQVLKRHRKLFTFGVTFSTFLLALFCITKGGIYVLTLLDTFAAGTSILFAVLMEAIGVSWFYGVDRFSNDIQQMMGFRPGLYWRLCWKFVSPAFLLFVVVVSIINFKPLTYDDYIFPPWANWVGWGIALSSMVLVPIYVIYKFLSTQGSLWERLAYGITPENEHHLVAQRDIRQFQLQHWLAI", "assay": "cell-based", "conditions": "for Emax at 10 µM: read-out: NET IMAX, in parentheses: maximum efficacy at 10 μM"}, "[8]": {"biological_target": "T6, Kappa Opioid Receptor (KOR)", "assay": "biochemical", "conditions": "for Emax at 10 µM: read-out: KOR EMAX, in parentheses: maximum efficacy at 10 μM"}, "MOR": {"system": "MOR", "conditions": "cited from earlier work"}, "[9]": {"biological_target": "T6, Kappa Opioid Receptor (KOR)", "format": "biochemical"}, "CD-1 mice": {"system": "CD-1 mice", "conditions": "male CD-1 mice"}, "Mu Opioid Receptor (MOR) [10]": {"biological_target": "T1, Mu Opioid Receptor (MOR)", "assay": "biochemical", "format": "binding"}, "[11]": {"biological_target": "T8, Dopamine Transporter (DAT) (Homo sapiens, UniProt Q01959)", "T8 construct": "HA (N); host or cells: HEK293 (ATCC CRL-1573), electroporated, G418-selected population", "T8 sequence (Q01959 whole entry)": "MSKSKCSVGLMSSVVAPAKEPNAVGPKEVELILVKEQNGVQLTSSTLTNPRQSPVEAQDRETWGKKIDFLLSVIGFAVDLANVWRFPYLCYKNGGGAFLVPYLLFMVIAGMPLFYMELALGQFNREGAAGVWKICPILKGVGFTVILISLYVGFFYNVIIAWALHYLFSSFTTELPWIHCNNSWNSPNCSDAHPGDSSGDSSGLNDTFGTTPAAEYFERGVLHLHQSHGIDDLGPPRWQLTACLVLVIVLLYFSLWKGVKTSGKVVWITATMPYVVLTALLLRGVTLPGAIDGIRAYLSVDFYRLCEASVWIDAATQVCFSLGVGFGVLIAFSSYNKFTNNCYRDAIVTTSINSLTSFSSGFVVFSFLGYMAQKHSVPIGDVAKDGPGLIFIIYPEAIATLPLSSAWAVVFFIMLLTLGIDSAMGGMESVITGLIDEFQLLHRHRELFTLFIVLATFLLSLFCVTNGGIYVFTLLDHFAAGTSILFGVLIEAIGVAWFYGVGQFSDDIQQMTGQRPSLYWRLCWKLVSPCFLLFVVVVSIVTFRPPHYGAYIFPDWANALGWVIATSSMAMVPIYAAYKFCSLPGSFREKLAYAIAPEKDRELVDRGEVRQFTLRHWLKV", "assay": "cell-based", "format": "cell-based", "conditions": "for Emax at 10 µM: read-out: DAT IMAX, in parentheses: maximum efficacy at 10 μM"}, "[12]": {"biological_target": "T8, Dopamine Transporter (DAT)", "assay": "biochemical", "format": "binding"}, "[13]": {"biological_target": "T2, Serotonin Transporter (SERT)", "assay": "biochemical", "format": "binding"}},
  "note": "Where “and” joins values, the source holds several entries; their conditions need not be identical. Equal entries are not always repeated. Where two headings read alike, the source gives them in different places.",
  "data": [
    {"compound": "NC(=O)[C@H](Cc1ccccc1)NC(=O)[C@H](Cc1ccccc1)NC(=O)[C@@H]1CCCN1C(=O)[C@@H](N)Cc1ccc(O)cc1", "note": "[Endomorphin-2]", "values": [
      {"measurement": "Emax", "setting": "Mu Opioid Receptor (MOR) [1]", "value": "97 ± 2", "unit": "%"}
    ]},
    {"compound": "Fc1ccc(C(OCCN2CCN(CCCc3ccccc3)CC2)c2ccc(F)cc2)cc1", "note": "[GBR12909]", "values": [
      {"measurement": "SERT IMAX (transporter assay)", "setting": "[2]", "value": "100 ± 0.4", "unit": "%"}
    ]},
    {"compound": "COc1ccc2c3c1O[C@H]1C(=O)CC[C@H]4[C@@H](C2)N(C)CC[C@]314", "note": "[Hydrocodone]", "values": [
      {"measurement": "Ki", "setting": "Sigma-1 Receptor (σ1R)", "value": "4 ± 1.3", "unit": "µM"},
      {"measurement": "Potential new finding: σ1R binding (in words)", "setting": "Sigma-1 Receptor (σ1R)", "value": "KOR partial agonist; CB1 partial agonist; σ1R binding"}
    ]},
    {"compound": "CN1CC[C@]23c4c5ccc(O)c4O[C@H]2[C@@H](O)C=C[C@H]3[C@H]1C5", "note": "[Morphine]", "values": [
      {"measurement": "EC50", "setting": "[3]", "value": "> 2", "unit": "µM"},
      {"measurement": "Potential new finding: activity at CB1 (in words)", "setting": "[3]", "value": "CB1 partial agonist"},
      {"measurement": "Emax at 10 µM", "setting": "[3]; read-out: CB1 EMAX, in parentheses: maximum efficacy at 10 μM", "value": "> 41.5", "unit": "%"},
      {"measurement": "operational efficacy τ in vivo", "setting": "[4]; ref [13]–[15]", "value": "20–39 and 39"}
    ]},
    {"compound": "CN(C)C[C@H]1CCCC[C@]1(O)c1cccc(O)c1", "note": "[O-Desmethyl-Tramadol, O-desmethyl-tramadol]", "values": [
      {"measurement": "DOR EMAX (35S-GTPγS)", "setting": "[5]", "value": "38 ± 14", "unit": "%"},
      {"measurement": "Potential new finding: activity at DOR (in words)", "setting": "[5]", "value": "DOR/KOR partial agonist"},
      {"measurement": "EC50", "setting": "[5]; read-out: DOR EC50 (35S-GTPγS)", "value": "0.361 µM and 0.36 µM"},
      {"measurement": "Ki", "setting": "[6]; read-out: Target Binding Affinity Determined by Competition Radioligand Binding–KI, KOR", "value": "> 2", "unit": "µM"},
      {"measurement": "NET IMAX, in parentheses: maximum efficacy at 10 μM", "setting": "[7]", "value": "(29) %"},
      {"measurement": "IC50", "setting": "[7]; read-out: NET IC50 (transporter assay)", "value": "> 2", "unit": "µM"},
      {"measurement": "KOR EMAX, in parentheses: maximum efficacy at 10 μM", "setting": "[8]", "value": "(5.9) %"},
      {"measurement": "Potential new finding: activity at KOR (in words)", "setting": "[8]", "value": "DOR/KOR partial agonist"},
      {"measurement": "EC50", "setting": "[8]; read-out: KOR EC50 (35S-GTPγS)", "value": "> 2", "unit": "µM"}
    ]},
    {"compound": "COc1ccc2c3c1O[C@H]1C(=O)CC[C@@]4(O)[C@@H](C2)N(C)CC[C@]314", "note": "[Oxycodone]", "values": [
      {"measurement": "Emax", "setting": "Mu Opioid Receptor (MOR) [1]", "value": "90 ± 8", "unit": "%"},
      {"measurement": "operational efficacy τ in vivo", "setting": "[4]", "value": "20–39"},
      {"measurement": "Emax at 10 µM", "setting": "[8]", "value": 9.6, "unit": "%"},
      {"measurement": "operational efficacy τ in vitro", "setting": "MOR", "value": "3.3–5.2"},
      {"measurement": "KOR antagonist activity (in words)", "setting": "[9]", "value": "no KOR antagonist activity"}
    ]},
    {"compound": "CNCC[C@H](Oc1cccc2ccccc12)c1cccs1", "note": "[S-Duloxetine, S-duloxetine]", "values": [
      {"measurement": "AUC increase of buprenorphine anti-nociception (tail flick)", "setting": "CD-1 mice; duloxetine 20 mg/kg intraperitoneal 10 minutes before buprenorphine 0.2 mg/kg subcutaneous, 52°C water, 2 hour time course", "value": 50.6, "unit": "%"},
      {"measurement": "Effect on oxymorphone anti-nociception (tail flick)", "setting": "CD-1 mice; duloxetine 20 mg/kg intraperitoneal 10 minutes before oxymorphone 0.3 mg/kg subcutaneous, p > 0.05", "value": "no effect"},
      {"measurement": "Effect on tail flick baselines", "setting": "CD-1 mice; duloxetine 20 mg/kg intraperitoneal alone (followed by vehicle)", "value": "no effect"}
    ]},
    {"compound": "CC[C@@H](c1cccc(O)c1)[C@@H](C)CN(C)C", "note": "[Tapentadol]", "values": [
      {"measurement": "Ki", "setting": "Mu Opioid Receptor (MOR) [10]", "value": "2.1 ± 0.084", "unit": "µM"},
      {"measurement": "IC50", "setting": "[11]", "value": "> 10", "unit": "µM"},
      {"measurement": "Emax at 10 µM", "setting": "[11]", "value": 19, "unit": "%"},
      {"measurement": "Ki", "setting": "[12]", "value": "> 2", "unit": "µM"},
      {"measurement": "Ki", "setting": "[6]", "value": "> 2", "unit": "µM"},
      {"measurement": "IC50", "setting": "[7]", "value": "> 2", "unit": "µM"},
      {"measurement": "Emax at 10 µM", "setting": "[7]", "value": 61, "unit": "%"},
      {"measurement": "Ki", "setting": "[13]", "value": "> 2", "unit": "µM"},
      {"measurement": "Ki", "setting": "Sigma-1 Receptor (σ1R)", "value": "2.6 ± 0.41", "unit": "µM"},
      {"measurement": "Potential new finding: σ1R binding (in words)", "setting": "Sigma-1 Receptor (σ1R)", "value": "KOR partial agonist; σ1R binding"},
      {"measurement": "σ1R binding affinity fold vs. MOR affinity", "setting": "Sigma-1 Receptor (σ1R)", "value": "nearly the same affinity as the MOR and approximately equal affinity to MOR and same"},
      {"measurement": "EC50", "setting": "Mu Opioid Receptor (MOR) [1]; MOR EC50 (35S-GTPγS)", "value": "1.3 ± 0.53", "unit": "µM"},
      {"measurement": "Emax", "setting": "Mu Opioid Receptor (MOR) [1]", "value": "73 ± 7", "unit": "%"},
      {"measurement": "IC50", "setting": "[2]", "value": "> 2", "unit": "µM"},
      {"measurement": "Emax at 10 µM", "setting": "[2]; read-out: SERT IMAX, in parentheses: maximum efficacy at 10 μM", "value": 68, "unit": "%"},
      {"measurement": "Potential new finding: activity at KOR (in words)", "setting": "[8]", "value": "KOR partial agonist; σ1R binding"},
      {"measurement": "EC50", "setting": "[8]; KOR EC50 (35S-GTPγS)", "value": "> 2", "unit": "µM"},
      {"measurement": "Emax at 10 µM", "setting": "[8]", "value": 13, "unit": "%"}
    ]},
    {"compound": "COc1cccc(C2(O)CCCCC2CN(C)C)c1", "note": "(stereo not shown) [Tramadol]", "values": [
      {"measurement": "IC50", "setting": "[11]", "value": "> 10", "unit": "µM"},
      {"measurement": "Emax at 10 µM", "setting": "[11]", "value": 22, "unit": "%"},
      {"measurement": "Ki", "setting": "[12]", "value": "> 2", "unit": "µM"},
      {"measurement": "Ki", "setting": "[6]", "value": "0.89 ± 0.033", "unit": "µM"},
      {"measurement": "Emax at 10 µM", "setting": "[7]", "value": 57, "unit": "%"},
      {"measurement": "MOR EMAX (35S-GTPγS)", "setting": "Mu Opioid Receptor (MOR) [1]", "value": "26 ± 6", "unit": "%"},
      {"measurement": "Emax", "setting": "Mu Opioid Receptor (MOR) [1]", "value": 25.5, "unit": "%"},
      {"measurement": "KOR antagonist activity (in words)", "setting": "[9]", "value": "no KOR antagonist activity"}
    ]},
    {"compound": "CCC(=O)C(CC(C)N(C)C)(c1ccccc1)c1ccccc1", "note": "(stereo not shown) [methadone]", "values": [
      {"measurement": "operational efficacy τ in vivo", "setting": "[4]", "value": 39}
    ]},
    {"compound": "Buprenorphine", "values": [
      {"measurement": "DAT IMAX, in parentheses: maximum efficacy at 10 μM", "setting": "[11]", "value": "(-67) %"},
      {"measurement": "DAT transport activation", "setting": "[11]", "value": 67.2, "unit": "%"},
      {"measurement": "Potential new finding: activity at DAT (in words)", "setting": "[11]", "value": "CB1 inverse agonist; Monoamine transporter activator"},
      {"measurement": "NET IMAX, in parentheses: maximum efficacy at 10 μM", "setting": "[7]", "value": "(-26) %"},
      {"measurement": "Potential new finding: activity at NET (in words)", "setting": "[7]", "value": "CB1 inverse agonist; Monoamine transporter activator"},
      {"measurement": "CB1 EMAX, in parentheses: maximum efficacy at 10 μM", "setting": "[3]", "value": "(-38) %"},
      {"measurement": "Potential new finding: activity at CB1 (in words)", "setting": "[3]", "value": "CB1 inverse agonist; Monoamine transporter activator"},
      {"measurement": "Potential new finding: activity at SERT (in words)", "setting": "[2]", "value": "CB1 inverse agonist; Monoamine transporter activator"},
      {"measurement": "SERT IMAX, in parentheses: maximum efficacy at 10 μM", "setting": "[2]", "value": "(-20) %"}
    ]}
  ]
}
